The results in this text go back to publication PMC5573416, “Inhibiting mycobacterial tryptophan synthase by targeting the inter-subunit interface” (Scientific Reports, 2017).

Experiment [1] addresses T1, Mtb tryptophan synthase (TrpA and TrpB-F188L) (Mycobacterium tuberculosis, UniProt P9WFX9+P9WFY1, F199L). Type of experiment: biochemical.
The target of experiment [2] is T1, Mtb tryptophan synthase (TrpA and TrpB-F188L). Type of experiment: biochemical. The source holds these as a separate data set.

Turning to `CNS(=O)(=O)c1ccc2c(c1)CCN2C(=O)c1ccccc1F` [Compound 2], the “L-tryptophan synthesis in presence of inhibitor (TLC)” value in experiment [1] is “relatively the same amount of tryptophan”. Consider `CNS(=O)(=O)c1ccc2c(c1)CCN2C(=O)c1ccc(C)s1` [Compound 3], for which the “L-tryptophan produced in presence of inhibitor (GF-HPLC)” value in experiment [2] is “L-tryptophan was produced”.
